From patent US20250236608A1, “EGFR INHIBITORS” (Blueprint Medicines Corporation, priority 2022, published 2025)

Tests used:
EGFR L858R = EGFR L858R (Homo sapiens (Human), UniProt P00533, L858R); experiment: Biochemical EGFR inhibition assay, EGFR L858R; settings: Caliper mobility shift; 1.0 mM ATP or ATP Km; read-out: Enz EGFR_L858R IC50
EGFR (d746-750) = EGFR (d746-750) (Homo sapiens (Human), UniProt P00533, DEL746-750); experiment: Biochemical EGFR inhibition assay, EGFR (d746-750); settings: Caliper mobility shift; 1.0 mM ATP or ATP Km; read-out: Enz EGFR_Exon19-del746-750 IC50
Sequence of EGFR (d746-750) (P00533 other isoform, or with tags, fused parts or gaps del 1-694/del 746-750 limits assumed): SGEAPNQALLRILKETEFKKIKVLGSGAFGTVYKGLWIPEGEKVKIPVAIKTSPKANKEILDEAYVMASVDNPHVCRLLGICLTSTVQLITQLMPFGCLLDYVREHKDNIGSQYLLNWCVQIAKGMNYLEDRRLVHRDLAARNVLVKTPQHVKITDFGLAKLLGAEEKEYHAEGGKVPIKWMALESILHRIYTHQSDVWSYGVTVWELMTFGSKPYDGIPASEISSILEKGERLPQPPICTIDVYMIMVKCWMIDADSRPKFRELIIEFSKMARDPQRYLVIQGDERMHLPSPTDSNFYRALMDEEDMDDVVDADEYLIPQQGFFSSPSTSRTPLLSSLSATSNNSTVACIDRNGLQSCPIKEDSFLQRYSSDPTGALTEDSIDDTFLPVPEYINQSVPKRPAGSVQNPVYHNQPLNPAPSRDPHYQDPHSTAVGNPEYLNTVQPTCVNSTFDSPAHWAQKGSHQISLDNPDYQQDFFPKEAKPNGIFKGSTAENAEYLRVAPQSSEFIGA

[1] = biological target: pEGFR (Tyr1068) in PC-9 cells (Ex19Del) (Homo sapiens (Human), UniProt P00533, DEL746-750); experiment: PC-9 pEGFR AlphaLISA assay; type: cell-based; settings: 4 hours incubation, p-EGFR (Tyr1068) AlphaLISA, read-out: Ext pEGFR_PC-9 Ex19Del IC50
Sequence of pEGFR (Tyr1068) in PC-9 cells (Ex19Del) (P00533 other isoform, or with tags, fused parts or gaps del 746-750): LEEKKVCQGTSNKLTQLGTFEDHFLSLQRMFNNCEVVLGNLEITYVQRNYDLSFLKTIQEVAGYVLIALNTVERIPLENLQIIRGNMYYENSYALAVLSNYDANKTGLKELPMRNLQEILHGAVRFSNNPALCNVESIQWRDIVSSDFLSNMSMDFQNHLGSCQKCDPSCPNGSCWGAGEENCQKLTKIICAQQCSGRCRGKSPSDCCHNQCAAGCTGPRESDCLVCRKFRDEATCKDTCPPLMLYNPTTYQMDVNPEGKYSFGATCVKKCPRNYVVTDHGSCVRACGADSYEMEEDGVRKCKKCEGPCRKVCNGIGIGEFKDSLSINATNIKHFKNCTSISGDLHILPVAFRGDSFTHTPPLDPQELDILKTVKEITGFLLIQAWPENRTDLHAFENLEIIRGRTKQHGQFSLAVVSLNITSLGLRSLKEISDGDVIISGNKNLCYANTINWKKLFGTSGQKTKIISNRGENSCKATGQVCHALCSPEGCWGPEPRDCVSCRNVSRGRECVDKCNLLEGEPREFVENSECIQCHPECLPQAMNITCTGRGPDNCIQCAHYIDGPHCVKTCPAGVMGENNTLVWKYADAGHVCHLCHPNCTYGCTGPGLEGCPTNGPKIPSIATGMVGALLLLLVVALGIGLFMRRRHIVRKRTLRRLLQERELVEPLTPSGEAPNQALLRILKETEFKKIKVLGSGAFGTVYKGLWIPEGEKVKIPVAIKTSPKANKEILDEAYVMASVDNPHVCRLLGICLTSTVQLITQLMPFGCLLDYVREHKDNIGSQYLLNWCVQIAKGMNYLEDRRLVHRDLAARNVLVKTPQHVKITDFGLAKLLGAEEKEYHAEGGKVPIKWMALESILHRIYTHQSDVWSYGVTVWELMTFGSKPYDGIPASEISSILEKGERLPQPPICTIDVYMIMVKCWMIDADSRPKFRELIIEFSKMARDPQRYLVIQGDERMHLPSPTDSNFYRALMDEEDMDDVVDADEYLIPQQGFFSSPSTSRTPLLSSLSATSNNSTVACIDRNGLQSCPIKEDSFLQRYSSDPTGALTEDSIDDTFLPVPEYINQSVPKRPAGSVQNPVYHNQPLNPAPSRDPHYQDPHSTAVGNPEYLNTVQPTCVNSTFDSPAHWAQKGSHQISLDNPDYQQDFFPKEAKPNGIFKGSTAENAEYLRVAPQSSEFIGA
Outline: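 Compounds are added in ten 4-fold dilutions to adherent cells grown in serum-containing (10% FBS) phenol-free DMEM and left for 4 hours at 37° C. Phosphorylated receptor in lysates is quantified by bead-based AlphaLISA. IC50 values derive from inhibition plotted against log dose.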

Sequence of EGFR L858R (P00533 25-1210 L858R): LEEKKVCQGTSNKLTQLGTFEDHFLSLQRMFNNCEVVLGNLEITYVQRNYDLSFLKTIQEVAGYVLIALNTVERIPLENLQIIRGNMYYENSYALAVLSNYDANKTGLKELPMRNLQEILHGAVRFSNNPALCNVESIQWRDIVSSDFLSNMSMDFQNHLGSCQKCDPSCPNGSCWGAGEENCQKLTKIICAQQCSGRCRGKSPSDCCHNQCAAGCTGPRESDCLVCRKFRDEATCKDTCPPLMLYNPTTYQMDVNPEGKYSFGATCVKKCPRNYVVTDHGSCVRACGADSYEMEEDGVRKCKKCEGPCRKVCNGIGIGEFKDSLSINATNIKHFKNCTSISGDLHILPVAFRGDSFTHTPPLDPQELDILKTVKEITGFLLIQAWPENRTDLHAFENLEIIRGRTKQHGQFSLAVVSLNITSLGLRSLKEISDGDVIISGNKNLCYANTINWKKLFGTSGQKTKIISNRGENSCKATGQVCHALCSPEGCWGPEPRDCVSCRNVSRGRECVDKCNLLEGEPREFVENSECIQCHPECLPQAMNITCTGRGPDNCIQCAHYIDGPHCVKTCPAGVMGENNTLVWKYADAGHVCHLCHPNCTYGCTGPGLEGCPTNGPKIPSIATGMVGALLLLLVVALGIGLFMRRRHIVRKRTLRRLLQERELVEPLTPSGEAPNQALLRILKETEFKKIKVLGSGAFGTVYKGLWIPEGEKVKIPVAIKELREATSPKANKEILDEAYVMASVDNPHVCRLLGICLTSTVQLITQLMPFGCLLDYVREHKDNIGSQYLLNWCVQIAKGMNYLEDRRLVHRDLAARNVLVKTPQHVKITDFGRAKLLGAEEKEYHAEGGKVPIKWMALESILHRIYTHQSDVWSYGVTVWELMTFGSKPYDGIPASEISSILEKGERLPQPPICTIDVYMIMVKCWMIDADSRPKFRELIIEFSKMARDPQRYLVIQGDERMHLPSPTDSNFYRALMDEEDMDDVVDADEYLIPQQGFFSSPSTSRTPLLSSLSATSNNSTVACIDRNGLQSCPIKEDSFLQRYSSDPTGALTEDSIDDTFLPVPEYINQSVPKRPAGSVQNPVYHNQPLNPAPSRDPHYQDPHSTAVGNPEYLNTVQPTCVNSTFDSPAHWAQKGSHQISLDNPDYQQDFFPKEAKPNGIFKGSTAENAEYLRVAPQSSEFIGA

IC50 (EGFR L858R) [nM] | IC50 (EGFR (d746-750)) [nM] | IC50 [1] [nM] | SMILES
1.5 | 0.9 | 0.6 | COc1cc2ncnc(-c3cn(CC(F)F)nc3-c3ccccc3)c2cc1NC(=O)c1cnc(C)s1 [Example 274, N-(4-(1-(2,2-difluoroethyl)-3-phenyl-1H-pyrazol-4-yl)-7-methoxyquinazolin-6-yl)-2-methylthiazole-5-carboxamide]
1.3 | 0.9 | 1.9 | CCC(=O)Nc1cc2c(-c3cn(C)nc3-c3ccccc3)ncnc2cc1-c1ncccn1 [Example 449, N-(4-(1-methyl-3-phenyl-1H-pyrazol-4-yl)-7-(pyrimidin-2-yl)quinazolin-6-yl)propionamide]
7.3 | 3.5 | 6.1 | COc1cc2ncnc(-c3cn(CCN(C)C)nc3-c3ccccc3)c2cc1NC(=O)C12CC(C1)C2 [Example 308, N-(4-(1-(2-(dimethylamino)ethyl)-3-phenyl-1H-pyrazol-4-yl)-7-methoxyquinazolin-6-yl)bicyclo[1.1.1]pentane-1-carboxamide]
2.2 | 0.8 | 2.3 | COc1cc2ncnc(-c3cn(C)nc3-c3ccccc3F)c2nc1NC(=O)[C@@]12C[C@@H]1CN(C)C2 [Example 373, (1S,5S)—N-(4-(3-(2-fluorophenyl)-1-methyl-1H-pyrazol-4-yl)-7-methoxypyrido[3,2-d]pyrimidin-6-yl)-3-methyl-3-azabicyclo[3.1.0]hexane-1-carboxamide]
1.9 | 0.9 | 0.8 | COc1cc2ncnc(-c3cn(CC(F)F)nc3-c3ccccc3)c2cc1OCCCN1CCOCC1 [Example 23, 4-(3-((4-(1-(2,2-difluoroethyl)-3-phenyl-1H-pyrazol-4-yl)-7-methoxyquinazolin-6-yl)oxy)propyl)morpholine]
1.8 | 1 | 1.2 | COc1cc2ncnc(-c3cn(C)nc3-c3ccc(F)cc3)c2cc1NC(=O)c1scnc1C [Example 304, N-(4-(3-(4-fluorophenyl)-1-methyl-1H-pyrazol-4-yl)-7-methoxyquinazolin-6-yl)-4-methylthiazole-5-carboxamide]
5.7 | 2.4 | 8.4 | COc1cc2ncnc(-c3cn(C)nc3-c3ccccc3)c2cc1NC(=O)c1cccc(F)c1C [Example 200, 3-fluoro-N-(7-methoxy-4-(1-methyl-3-phenyl-1H-pyrazol-4-yl)quinazolin-6-yl)-2-methylbenzamide]
3.2 | 1.7 | 3.4 | COc1cc2ncnc(-c3cn(C)nc3-c3ccccc3)c2cc1NC(=O)C1(C)CCC1 [Example 348, N-(7-methoxy-4-(1-methyl-3-phenyl-1H-pyrazol-4-yl)quinazolin-6-y1)-1-methylcyclobutane-1-carboxamide]
1.6 | 0.8 | 1.3 | CCOc1cc2ncnc(-c3cn(CC(F)F)nc3-c3ccccc3)c2cc1OC [Example 19, 4-(1-(2,2-difluoroethyl)-3-phenyl-1H-pyrazol-4-yl)-7-ethoxy-6-methoxyquinazoline]

The remaining lines, values behind:

SMILES | IC50 (EGFR L858R) [nM] | IC50 (EGFR (d746-750)) [nM] | IC50 [1] [nM]
CCOc1cc2ncnc(-c3cn(C)nc3-c3ccccc3)c2nc1NC(=O)[C@]12C[C@H]1CN(C)C2 (single isomer, unassigned) [Example 378, (1R,5R)—N-(7-ethoxy-4-(1-methyl-3-phenyl-1H-pyrazol-4-yl)pyrido[3,2-d]pyrimidin-6-yl)-3-methyl-3-azabicyclo[3.1.0]hexane-1-carboxamide or (1S,5S)—N-(7-ethoxy-4-(1-methyl-3-phenyl-1H-pyrazol-4-yl)pyrido[3,2-d]pyrimidin-6-yl)-3-methyl-3-azabicyclo[3.1.0]hexane-1-carboxamide] | 1.3 | 0.7 | 1.2
CCOc1cc2ncnc(-c3cn(C)nc3-c3ccccc3)c2cc1NC(=O)C1CC1 [Example 306, N-(7-ethoxy-4-(1-methyl-3-phenyl-1H-pyrazol-4-yl)quinazolin-6-yl)cyclopropanecarboxamide] | 1.4 | 1.1 | 0.6
COc1cc2ncnc(-c3cn(CCO)nc3-c3ccccc3)c2cc1NC(=O)c1ccccc1F [Example 264, 2-fluoro-N-(4-(1-(2-hydroxyethyl)-3-phenyl-1H-pyrazol-4-yl)-7-methoxyquinazolin-6-yl)benzamide] | 0.6 | 0.4 | 0.3
COc1cc2ncnc(-c3cnn(CC(F)F)c3-c3ccc(F)cc3)c2cc1C1(O)CC1 [Example 490] | 82 | 237 | 836
COc1cc2ncnc(-c3cn(C)nc3-c3ccccc3)c2nc1NC(=O)[C@H](C)N(C)C [Example 390, (S)-2-(dimethylamino)-N-(7-methoxy-4-(1-methyl-3-phenyl-1H-pyrazol-4-yl)pyrido[3,2-d]pyrimidin-6-yl) propenamide] | 9.3 | 3.9 | 8.7
Cc1nnc([C@@H](C)Oc2nc3c(-c4cn(C)nc4-c4ccccc4)ncnc3cc2OC2CC2)o1 (single isomer, unassigned) [Example 478, 2-[(1S)-1-{[7-cyclopropoxy-4-(1-methyl-3-phenyl-1H-pyrazol-4-yl)pyrido[3,2-d]pyrimidin-6-yl]oxy}ethyl]-5-methyl-1,3,4-oxadiazole or 2-[(1R)-1-{[7-cyclopropoxy-4-(1-methyl-3-phenyl-1H-pyrazol-4-yl)pyrido[3,2-d]pyrimidin-6-yl]oxy}ethyl]-5-methyl-1,3,4-oxadiazole] | 10.5 | 2.8 | 3.6
COc1cc2ncnc(-c3cn(C)nc3-c3ccccc3)c2cc1NC(=O)C12CC(F)(C1)C2 [Example 342, 3-fluoro-N-(7-methoxy-4-(1-methyl-3-phenyl-1H-pyrazol-4-yl)quinazolin-6-yl)bicyclo[1.1.1]pentane-1-carboxamide] | 6.7 | 3.5 | 11.2
COc1cc2ncnc(-c3cn(C)nc3-c3ccccc3)c2cc1NC(=O)c1cnn(C(F)(F)F)c1C [Example 234, N-(7-methoxy-4-(1-methyl-3-phenyl-1H-pyrazol-4-yl)quinazolin-6-yl)-5-methyl-1-(trifluoromethyl)-1H-pyrazole-4-carboxamide] | 1.9 | 1.1 | 2.8
COc1cc2ncnc(-c3cn(C)nc3-c3ccccc3)c2cc1NC(=O)[C@@H](C)F (single isomer, unassigned) [Example 245, (R)-2-fluoro-N-(7-methoxy-4-(1-methyl-3-phenyl-1H-pyrazol-4-yl)quinazolin-6-yl) propenamide or (S)-2-fluoro-N-(7-methoxy-4-(1-methyl-3-phenyl-1H-pyrazol-4-yl)quinazolin-6-yl) propenamide] | 1.9 | 1 | 2.6
COc1cc2ncnc(-c3cn(C)nc3-c3ccccc3F)c2cc1NC(=O)[C@]12COC[C@H]1C2 (single isomer, unassigned) [Example 241, (1S,5S)—N-(4-(3-(2-fluorophenyl)-1-methyl-1H-pyrazol-4-yl)-7-methoxyquinazolin-6-yl)-3-oxabicyclo[3.1.0]hexane-1-carboxamide or (1R,5R)—N-(4-(3-(2-fluorophenyl)-1-methyl-1H-pyrazol-4-yl)-7-methoxyquinazolin-6-yl)-3-oxabicyclo[3.1.0]hexane-1-carboxamide] | 3 | 1.5 | 2
COc1cc2ncnc(-c3cn(C)nc3-c3ccccc3)c2cc1NC(=O)[C@H](C)CN(C)C (single isomer, unassigned) [Example 239, (R)-3-(dimethylamino)-N-(7-methoxy-4-(1-methyl-3-phenyl-1H-pyrazol-4-yl)quinazolin-6-yl)-2-methylpropanamide or (S)-3-(dimethylamino)-N-(7-methoxy-4-(1-methyl-3-phenyl-1H-pyrazol-4-yl)quinazolin-6-yl)-2-methylpropanamide] | 4.1 | 1.7 | 4
COc1cc2ncnc(-c3cn(C)nc3-c3ccccc3)c2cc1NC(=O)C1(C(F)(F)F)CC1 [Example 349, N-(7-methoxy-4-(1-methyl-3-phenyl-1H-pyrazol-4-yl)quinazolin-6-yl)-1-(trifluoromethyl)cyclopropane-1-carboxamide] | 2 | 1 | 3.5
CCCn1cc(-c2ncnc3cc(OC)c(NC(=O)c4ccc(C5CC5)nc4)cc23)c(-c2ccccc2)n1 [Example 301, 6-cyclopropyl-N-(7-methoxy-4-(3-phenyl-1-propyl-1H-pyrazol-4-yl)quinazolin-6-yl)nicotinamide] | 2.7 | 2 | 0.8
CCOc1cc2ncnc(-c3cn(C)nc3-c3ccccc3)c2cc1OC1CCN(C(=O)CC)CC1 [Example 10, 1-(4-((7-ethoxy-4-(1-methyl-3-phenyl-1H-pyrazol-4-yl)quinazolin-6-yl)oxy)piperidin-1-yl) propan-1-one] | 3.5 | 1.9 | 2.8
CCn1cc(C(=O)Nc2cc3c(-c4cn(C)nc4-c4ccccc4)ncnc3cc2OC)cn1 [Example 219, 1-ethyl-N-(7-methoxy-4-(1-methyl-3-phenyl-1H-pyrazol-4-yl)quinazolin-6-yl)-1H-pyrazole-4-carboxamide] | 1.9 | 1.1 | 1.7
